Assay results published in paper PMC11774189 (RSC Advances, 2025).

How the values were obtained:
[1] = tested on: Hek-293 human embryonic kidney cells; test: MTT cytotoxicity assay, Hek-293 cells; assay type: cell-based; conditions: for IC50: Homo sapiens, HEK293, 72 h, read-out: IC50, Hek-293
[2] = tested on: MCF7 (breast cancer) cell line; test: MTT cytotoxicity assay, MCF7 cells; assay type: cell-based, human; conditions: Homo sapiens, MCF7, 72 h, read-out: IC50, MCF7
[3] = tested on: A549 (non-small lung cancer) cell line; test: MTT cytotoxicity assay, A549 cells; assay type: cell-based, human; conditions: Homo sapiens, A549, 72 h, read-out: IC50, A549
[4] = tested on: HepG2 (hepatoma carcinoma) cell line; test: MTT cytotoxicity assay, HepG2 cells; assay type: cell-based, human; conditions: Homo sapiens, HepG2, 72 h, read-out: IC50, HepG2
[5] = tested on: KB (epidermoid carcinoma) cell line; test: MTT cytotoxicity assay, KB cells; assay type: cell-based, human; conditions: Homo sapiens, KB, 72 h, read-out: IC50, KB

Structure (SMILES) | IC50 [1] [µM] | IC50 [2] [µM] | IC50 [3] [µM] | IC50 [4] [µM] | IC50 [5] [µM] | fold lower cytotoxicity against Hek-293 cells than to A549 ([1]; Hek-293 vs A549) [fold] | fold lower cytotoxicity against Hek-293 cells than to MCF7 ([1]; Hek-293 vs MCF7)
O=C1OCC2=C1C1(C(=O)N(Cc3ccccc3)c3ccccc31)C1=C(N2)C(=O)c2ccccc2C1=O (centres unmarked) [Compound 7h, 1′-Benzyl-3H-spiro[benzo[g]furo[3,4-b]quinoline-11,3′-indoline]-1,2′,5,10(4H)-tetraone] | 2.72 ± 0.19 | 3.73 ± 0.38 | 1.71 ± 0.19 | 4.24 ± 0.38 | 3.96 ± 0.34 |  | 
O=C1OCC2=C1C1(C(=O)N(Cc3ccc(C(F)(F)F)cc3)c3ccccc31)C1=C(N2)C(=O)c2ccccc2C1=O (centres unmarked) [Compound 7i, 1′-(4-(Trifluoromethyl)benzyl)-3H-spiro[benzo[g]furo[3,4-b]quinoline-11,3′-indoline]-1,2′,5,10(4H)-tetraone] | 4.04 ± 0.42 | 3.72 ± 0.35 | 7.37 ± 0.83 | 4.5 ± 0.48 | 4.65 ± 0.44 |  | 
O=C1OCC2=C1C1(C(=O)N(Cc3ccc(Cl)cc3)c3ccccc31)C1=C(N2)C(=O)c2ccccc2C1=O (centres unmarked) [Compound 7j, 1′-(4-Chlorobenzyl)-3H-spiro[benzo[g]furo[3,4-b]quinoline-11,3′-indoline]-1,2′,5,10(4H)-tetraone] | 10.3 ± 1.06 | 4.09 ± 0.41 | 6.54 ± 0.69 | 5.78 ± 0.61 | 5.6 ± 0.49 |  | 
O=C1OCC2=C1C1(C(=O)N(Cc3ccc(Br)cc3F)c3ccccc31)C1=C(N2)C(=O)c2ccccc2C1=O (centres unmarked) [Compound 7k, 1′-(4-Bromo-2-fluorobenzyl)-3H-spiro[benzo[g]furo[3,4-b]quinoline-11,3′-indoline]-1,2′,5,10(4H)-tetraone] | > 28 | 15.1 ± 1.59 | 14 ± 1.59 | 20.9 ± 2.36 | 27.3 ± 2.15 |  | 
O=C1OCC2=C1C1(C(=O)N(Cc3ccc(C(F)(F)F)cc3)c3ccc(Cl)cc31)C1=C(N2)C(=O)c2ccccc2C1=O (centres unmarked) [Compound 7l, 5′-Chloro-1′-(4-(trifluoromethyl)benzyl)-3H-spiro[benzo[g]furo[3,4-b]quinoline-11,3′-indoline]-1,2′,5,10(4H)-tetraone] | > 27.7 | 13.4 ± 1.23 | 5.93 ± 0.64 | 15.1 ± 1.7 | 17.8 ± 1.68 |  | 
Cc1ccc2c(c1)N(Cc1ccc(Br)cc1F)C(=O)C21C2=C(COC2=O)NC2=C1C(=O)c1ccccc1C2=O (centres unmarked) [Compound 7m, 1′-(4-Bromo-2-fluorobenzyl)-6′-methyl-3H-spiro[benzo[g]furo[3,4-b]quinoline-11,3′-indoline]-1,2′,5,10(4H)-tetraone] | > 65 | 19.9 ± 0.89 | 13.3 ± 0.7 | 47.5 ± 2.15 | 51.7 ± 1.78 |  | 
O=C1OCC2=C1C1(C(=O)N(Cc3ccc(C(F)(F)F)cc3)c3cc(Br)c(Br)cc31)C1=C(N2)C(=O)c2ccccc2C1=O (centres unmarked) [Compound 7n, 5′,6′-Dibromo-1′-(4-(trifluoromethyl)benzyl)-3H-spiro[benzo[g]furo[3,4-b]quinoline-11,3′-indoline]-1,2′,5,10(4H)-tetraone] | 22.9 ± 2.2 | 2.11 ± 0.24 | 1.03 ± 0.13 | 6.74 ± 0.73 | 4.36 ± 0.4 | ~22 | about 11 fold
Cc1c2ccncc2c(C)c2c1[nH]c1ccccc12 [Ellipticine, reference compound] | 5.64 ± 0.32 | 2.07 ± 0.16 | 1.34 ± 0.08 | 2.07 ± 0.12 |  |  | 
